# Laboratory results published in patent US20050003388A1, “Calcium independent phospholipase A2upsilon polynucleotides and polypeptides and methods therefor” (priority 2000, published 2005).
# Experiments:
# [1] = target: T1, calcium-facilitated phospholipase A2γ (Homo sapiens, UniProt Q9UP65); settings: at <50 μM [BEL]; Jenkins et al. 2002; cited from earlier work
# T1 sequence (Q9UP65 1-541): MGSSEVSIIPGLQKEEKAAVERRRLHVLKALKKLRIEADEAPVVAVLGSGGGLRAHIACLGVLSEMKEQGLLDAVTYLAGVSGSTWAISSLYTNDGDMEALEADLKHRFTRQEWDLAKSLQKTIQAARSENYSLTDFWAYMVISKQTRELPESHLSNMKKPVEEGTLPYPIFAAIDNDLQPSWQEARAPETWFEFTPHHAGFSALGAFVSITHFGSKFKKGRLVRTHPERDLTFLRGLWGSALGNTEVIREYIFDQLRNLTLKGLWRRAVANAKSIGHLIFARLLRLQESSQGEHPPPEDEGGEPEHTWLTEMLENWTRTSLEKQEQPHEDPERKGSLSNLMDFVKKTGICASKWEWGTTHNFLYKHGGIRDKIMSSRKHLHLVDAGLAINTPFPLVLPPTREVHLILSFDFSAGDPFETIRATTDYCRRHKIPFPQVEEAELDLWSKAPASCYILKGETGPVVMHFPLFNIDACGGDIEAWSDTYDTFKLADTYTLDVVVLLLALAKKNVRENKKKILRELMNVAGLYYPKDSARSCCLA
# human iPLA2γ = target: T2, human iPLA2γ (Homo sapiens, UniProt Q9NP80); assay: Inhibition by BEL of phospholipase A2 activity of iPLA2γ in membrane fractions of infected Sf9 cells; type: biochemical
# T2 sequence (Q9NP80 1-782): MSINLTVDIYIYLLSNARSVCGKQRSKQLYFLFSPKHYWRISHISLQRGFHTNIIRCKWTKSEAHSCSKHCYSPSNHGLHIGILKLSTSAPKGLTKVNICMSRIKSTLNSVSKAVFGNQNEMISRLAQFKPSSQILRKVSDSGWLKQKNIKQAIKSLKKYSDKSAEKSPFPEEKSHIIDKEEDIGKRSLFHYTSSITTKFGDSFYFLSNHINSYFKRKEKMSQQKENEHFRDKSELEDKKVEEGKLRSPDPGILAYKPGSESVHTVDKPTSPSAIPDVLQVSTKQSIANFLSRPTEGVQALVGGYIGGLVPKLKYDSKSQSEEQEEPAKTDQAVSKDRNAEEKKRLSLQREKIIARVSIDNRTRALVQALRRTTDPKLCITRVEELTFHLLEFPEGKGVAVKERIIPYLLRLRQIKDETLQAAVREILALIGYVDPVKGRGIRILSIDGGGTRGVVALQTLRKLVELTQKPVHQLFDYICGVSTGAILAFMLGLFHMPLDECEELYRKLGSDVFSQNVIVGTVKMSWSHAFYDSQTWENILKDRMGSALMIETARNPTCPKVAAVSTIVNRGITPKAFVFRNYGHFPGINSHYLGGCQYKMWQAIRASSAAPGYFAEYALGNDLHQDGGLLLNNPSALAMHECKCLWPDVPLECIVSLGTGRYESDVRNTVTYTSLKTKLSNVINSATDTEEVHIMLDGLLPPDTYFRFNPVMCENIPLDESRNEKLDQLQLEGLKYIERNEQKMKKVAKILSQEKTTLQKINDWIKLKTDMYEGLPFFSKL
# Procedure: Briefly, Sf9 cells were infected with either wild-type baculovirus or baculovirus encoding human iPLA2γ, as described in Example 5. Cytosolic and membrane fractions of the infected Sf9 cells were prepared as described above. Phospholipase A2 activity was assessed as follows. Membrane fractions from control cells or cells expressing iPLA2γ were incubated with 40 μM L-α-1-palmitoyl-2-[1-^14C]oleoyl phosphatidylcholine in 100 mM Tris-Hac, pH 8.0, containing 1 mM EGTA at 37° C. Aliquots of the reaction were removed at the indicated times, and the amount of [1-^14C]oleic acid released was quantified as described above. Specifically, the release of sn-2-fatty acid from glycero-3-phosphocholine was determined as a function of time.
# Briefly, Sf9 cells were infected with either wild-type baculovirus or baculovirus encoding human iPLA2γ, as described in Example 5. Membrane fractions of the infected Sf9 cells were prepared as described above, and then incubated for three minutes at room temperature in 100 mM Tris-HAc, pH 8.0, containing lmM EGTA, with varying concentrations of BEL, or ethanol vehicle, as indicated along the x-axis. L-α-1-palmitoyl-2-[1-^14C]oleoyl phosphatidylcholine (40 μM final concentration) in ethanol was then added to each reaction, followed by incubation at 37° C. for two minutes. Released [1-^14C]oleic acid was quantitated as described above. […]
# [2] = test system: myocardial cytosolic and membrane-associated iPLA2; settings: irreversible mechanism-based inhibitor; Hazen et al. 1991, Zupan et al., Gross et al. 1993; cited from earlier work
smiles,measurement,setting,value
"O=C1OC(=CBr)CCC1c1cccc2ccccc12 (stereo not shown) [BEL, (E)-6-(bromomethylene)-3-(1-napthalenyl)-2H-tetrahydropyran-2-one]",inhibition of calcium-facilitated phospholipase A2γ by BEL,[1],not inhibited
same,IC50,human iPLA2γ,~3 µM
same,inhibition at 5 µM,"human iPLA2γ; 5 μM BEL, preincubation of membranes for three minutes prior to addition of substrate (40 μM POPC), 37° C. two minutes",~70%
same,concentrations giving nearly complete inhibition of myocardial cytosolic membrane-associated iPLA2,[2],2 to 5 µM
